Legend:
morningglory = assay: Test A pre-/postemergence herbicide test; format: in vivo, Ipomoea spp.
In short: (§1)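 Both application timings were run together: directed soil spray over freshly planted seeds in sandy loam, and runoff spray onto 2–10 cm seedlings. Evaluation after ~10 days in greenhouse used a 0–100 visual scale versus untreated controls.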

large crabgrass = assay: Test B pre-/postemergence herbicide test; format: in vivo, Digitaria sanguinalis
In short: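 Formulation: non-phytotoxic solvent mix with surfactant. Timing: preemergence on seed and postemergence on 2–18 cm plants, applied concurrently. Readout after 13–15 d greenhouse: visual 0–100 control rating against controls.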

lambsquarters = assay: Test C pre-/postemergence herbicide test; format: in vivo, Chenopodium album
In short: (§2)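 Emerged plants at the 1- to 4-leaf stage (2–18 cm), or freshly planted seeds, received test chemicals in a non-phytotoxic solvent mixture with surfactant. Response was visually scored against controls after 12 to 14 days in the greenhouse, on a 0 (no effect) to 100 (complete control) scale.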

barnyardgrass [1] = assay: Test A pre-/postemergence herbicide test; format: in vivo, Echinochloa crus-galli
In short: as §1

johnsongrass = assay: Test C pre-/postemergence herbicide test; format: in vivo, Sorghum halepense
In short: as §2

barnyardgrass [2] = assay: Test B pre-/postemergence herbicide test; format: in vivo, Echinochloa crus-galli
In short: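 Visual rating, 0 (no effect) to 100 (complete control), versus untreated controls after 13–15 d in greenhouse. Pre- and postemergence applications (postemergence plants 2–18 cm, 1–4 leaves); flooded paddy arm at 2-leaf stage. Compounds in non-phytotoxic solvent plus surfactant.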

woolly cupgrass = assay: Test C pre-/postemergence herbicide test; format: in vivo, Eriochloa villosa
In short: as §2

[3] = Postemergence, 500 g ai/ha, 0 to 100 scale, 0 no effect, 100 complete control
[4] = Postemergence, 2000 g ai/ha, 0 to 100 scale, 0 no effect, 100 complete control
[5] = Preemergence, 500 g ai/ha, visual rating, 0 to 100 scale (0 no effect, 100 complete control)
[6] = Preemergence, 2000 g ai/ha, 0 to 100 scale, 0 no effect, 100 complete control
[7] = Postemergence, 125 g ai/ha, scale 0 (no effect) to 100 (complete control)
[8] = Postemergence, 500 g ai/ha, visual rating after 13 to 15 days, scale 0 (no effect) to 100 (complete control)
[9] = Preemergence, 500 g ai/ha, scale 0 to 100
[10] = 125 g ai/ha, scale 0-100, preemergence
[11] = 250 g ai/ha, scale 0 to 100 (0 no effect, 100 complete control), visual, 12 to 14 days, preemergence
[12] = Postemergence, 500 g ai/ha, scale 0 to 100
[13] = Postemergence, 250 g ai/ha, scale 0 to 100, 0 no effect, 100 complete control
[14] = Preemergence, 500 g ai/ha, scale 0 to 100, 0 no effect, 100 complete control
[15] = postemergence, 125 g ai/ha, scale 0 to 100
[16] = postemergence, 62 g ai/ha, scale 0 to 100
[17] = Postemergence, 125 g ai/ha, scale 0 to 100, 0 no effect, 100 complete control
[18] = Preemergence, 2000 g ai/ha, visual rating, 0 to 100 scale (0 no effect, 100 complete control)
[19] = preemergence, 500 g ai/ha, visual injury, 0 to 100 scale (0 no effect, 100 complete control)
[20] = 125 g ai/ha, 0 = no effect, 100 = complete control, preemergence
[21] = 500 g ai/ha, visual rating 0-100, 0 no effect, 100 complete control, preemergence
[22] = postemergence, 125 g ai/ha, visual rating, scale 0 (no effect) to 100 (complete control)
[23] = postemergence, 500 g ai/ha, visual rating, scale 0 (no effect) to 100 (complete control)
[24] = 62 g ai/ha, preemergence, scale 0 to 100
[25] = 125 g ai/ha, scale 0 (no effect) to 100 (complete control), visual, 12 to 14 days, preemergence
[26] = 250 g ai/ha, scale 0-100, preemergence
[27] = 500 g ai/ha, visual rating, 0 = no effect, 100 = complete control, preemergence
[28] = postemergence, 500 g ai/ha, scale 0 to 100, 0 is no effect, 100 is complete control
[29] = 500 g ai/ha, scale 0 to 100 (0 no effect, 100 complete control), visual, 12 to 14 days, preemergence
[30] = 125 g ai/ha, 0 is no effect, 100 is complete control, preemergence
[31] = 125 g ai/ha, visual rating, scale 0 (no effect) to 100 (complete control), postemergence

C=Cn1nc(C(C)(C)C)cc1C(=O)Nc1cccc(C(=O)N(CC)CC)c1 [Compound 34]
Plant response rating, Morningglory (morningglory; [3]): 10
Plant response rating, Morningglory (morningglory; [4]): 20
Morningglory plant response rating (morningglory; [5]): 35
Morningglory plant response rating (morningglory; [6]): 50
Crabgrass, Large plant response rating (large crabgrass; [7]): 20
Plant response rating, Crabgrass, Large (large crabgrass; [8]): 20
Crabgrass, Large plant response rating (large crabgrass; [9]): 100
Plant response rating (0 = no effect, 100 = complete control), Lambsquarters (lambsquarters; 62 g ai/ha, preemergence): 90
Plant response rating, Lambsquarters (lambsquarters; [10]): 100
Plant response rating, Lambsquarters (lambsquarters; [11]): 100
Lambsquarters plant response rating (lambsquarters; [12]): 100
Plant response rating, Lambsquarters (lambsquarters; [13]): 100
Lambsquarters plant response rating (lambsquarters; [14]): 100
Plant response rating, Lambsquarters (lambsquarters; [15]): 80
Plant response rating, Lambsquarters (lambsquarters; [16]): 40
Plant response rating, Barnyardgrass (barnyardgrass [1]; [3]): 45
Plant response rating, Barnyardgrass (barnyardgrass [1]; [4]): 80
Barnyardgrass plant response rating (barnyardgrass [1]; [5]): 55
Barnyardgrass plant response rating (barnyardgrass [1]; [6]): 80
Plant response rating (0 = no effect, 100 = complete control), Johnsongrass (johnsongrass; 62 g ai/ha, preemergence): 50
Plant response rating, Johnsongrass (johnsongrass; [10]): 80
Plant response rating, Johnsongrass (johnsongrass; [11]): 100
Johnsongrass plant response rating (johnsongrass; [12]): 80
Plant response rating, Johnsongrass (johnsongrass; [17]): 70
Plant response rating, Johnsongrass (johnsongrass; [13]): 70
Johnsongrass plant response rating (johnsongrass; [14]): 100
Plant response rating, Johnsongrass (johnsongrass; [16]): 70
Barnyardgrass plant response rating (barnyardgrass [2]; [7]): 20
Plant response rating, Barnyardgrass (barnyardgrass [2]; [8]): 30
Barnyardgrass plant response rating (barnyardgrass [2]; [9]): 80
Plant response rating (0 = no effect, 100 = complete control), Cupgrass, Woolly (woolly cupgrass; 62 g ai/ha, preemergence): 10
Plant response rating, Cupgrass, Woolly (woolly cupgrass; [10]): 20
Plant response rating, Cupgrass, Woolly (woolly cupgrass; [11]): 70
Cupgrass, Woolly plant response rating (woolly cupgrass; [12]): 90
Plant response rating, Cupgrass, Woolly (woolly cupgrass; [17]): 60
Plant response rating, Cupgrass, Woolly (woolly cupgrass; [13]): 80
Cupgrass, Woolly plant response rating (woolly cupgrass; [14]): 70
Plant response rating, Cupgrass, Woolly (woolly cupgrass; [16]): 40

CCc1nc(C(C)(C)C)sc1C(=O)Nc1cccc(C(=O)N(CC)CC)c1 [Compound 205]
Morningglory plant response rating (morningglory; [3]): 25
Plant response rating, Morningglory (morningglory; [4]): 20
Morningglory plant response rating (morningglory; [18]): 45
Morningglory plant response rating (morningglory; [19]): 30
Crabgrass, Large plant response rating (0 to 100 scale) (large crabgrass; [20]): 60
Plant response rating, Crabgrass, Large (large crabgrass; [21]): 90
Crabgrass, Large plant response rating (large crabgrass; [22]): 10
Crabgrass, Large plant response rating (large crabgrass; [23]): 20
Plant response rating, Lambsquarters (lambsquarters; [24]): 85
Plant response rating, Lambsquarters (lambsquarters; [25]): 90
Plant response rating, Lambsquarters (lambsquarters; [26]): 90
Lambsquarters plant response rating (lambsquarters; [14]): 100
Barnyardgrass plant response rating (barnyardgrass [1]; [3]): 45
Plant response rating, Barnyardgrass (barnyardgrass [1]; [4]): 65
Barnyardgrass plant response rating (barnyardgrass [1]; [18]): 90
Barnyardgrass plant response rating (barnyardgrass [1]; [19]): 80
Plant response rating, Johnsongrass (johnsongrass; [24]): 0
Plant response rating, Johnsongrass (johnsongrass; [25]): 10
Plant response rating, Johnsongrass (johnsongrass; [26]): 60
Johnsongrass plant response rating (johnsongrass; [14]): 85
Barnyardgrass plant response rating (0 to 100 scale) (barnyardgrass [2]; [20]): 50
Plant response rating, Barnyardgrass (barnyardgrass [2]; [21]): 90
Barnyardgrass plant response rating (barnyardgrass [2]; [22]): 10
Barnyardgrass plant response rating (barnyardgrass [2]; [23]): 20
Plant response rating, Cupgrass, Woolly (woolly cupgrass; [24]): 0
Plant response rating, Cupgrass, Woolly (woolly cupgrass; [25]): 10
Plant response rating, Cupgrass, Woolly (woolly cupgrass; [26]): 10
Cupgrass, Woolly plant response rating (woolly cupgrass; [14]): 50

CCNC(=O)c1ccc(F)c(NC(=O)C2CC(C(C)(C)C)=NN2CC)c1 (racemic) [Compound 269]
Morningglory plant response rating (morningglory; [3]): 20
Plant response rating, Morningglory (morningglory; [4]): 35
Morningglory plant response rating (morningglory; [18]): 30
Morningglory plant response rating (morningglory; [19]): 20
Crabgrass, Large plant response rating (0 to 100 scale) (large crabgrass; [20]): 100
Plant response rating, Crabgrass, Large (large crabgrass; [27]): 100
Crabgrass, Large plant response rating (large crabgrass; [22]): 10
Crabgrass, Large plant response rating (large crabgrass; [28]): 20
Plant response rating, Lambsquarters (lambsquarters; [24]): 95
Plant response rating, Lambsquarters (lambsquarters; [25]): 100
Plant response rating, Lambsquarters (lambsquarters; [26]): 100
Plant response rating, Lambsquarters (lambsquarters; [29]): 100
Barnyardgrass plant response rating (barnyardgrass [1]; [3]): 70
Plant response rating, Barnyardgrass (barnyardgrass [1]; [4]): 80
Barnyardgrass plant response rating (barnyardgrass [1]; [18]): 100
Barnyardgrass plant response rating (barnyardgrass [1]; [19]): 95
Plant response rating, Johnsongrass (johnsongrass; [24]): 40
Plant response rating, Johnsongrass (johnsongrass; [25]): 60
Plant response rating, Johnsongrass (johnsongrass; [26]): 100
Plant response rating, Johnsongrass (johnsongrass; [29]): 100
Barnyardgrass plant response rating (0 to 100 scale) (barnyardgrass [2]; [20]): 80
Plant response rating, Barnyardgrass (barnyardgrass [2]; [27]): 100
Barnyardgrass plant response rating (barnyardgrass [2]; [22]): 10
Barnyardgrass plant response rating (barnyardgrass [2]; [28]): 30
Plant response rating, Cupgrass, Woolly (woolly cupgrass; [24]): 10
Plant response rating, Cupgrass, Woolly (woolly cupgrass; [25]): 40
Plant response rating, Cupgrass, Woolly (woolly cupgrass; [26]): 60
Plant response rating, Cupgrass, Woolly (woolly cupgrass; [29]): 85

C=CCNC(=O)c1cccc(NC(=O)c2cc(C(C)(C)C)nn2C)n1 [Compound 318]
Morningglory plant response rating (morningglory; [3]): 50
Plant response rating, Morningglory (morningglory; [4]): 55
Morningglory plant response rating (morningglory; [18]): 50
Morningglory plant response rating (morningglory; [19]): 20
Plant response rating (0 to 100 scale), Crabgrass, Large (large crabgrass; [30]): 10
Crabgrass, Large plant response rating (large crabgrass; [31]): 10
Plant response rating, Crabgrass, Large (large crabgrass; [27]): 90
Crabgrass, Large plant response rating (large crabgrass; [28]): 60
Plant response rating, Lambsquarters (lambsquarters; [24]): 80
Plant response rating, Lambsquarters (lambsquarters; [25]): 95
Plant response rating, Lambsquarters (lambsquarters; [26]): 100
Plant response rating, Lambsquarters (lambsquarters; [29]): 100
Lambsquarters plant response rating (lambsquarters; [12]): 100
Plant response rating, Lambsquarters (lambsquarters; [13]): 100
Plant response rating, Lambsquarters (lambsquarters; [15]): 70
Plant response rating, Lambsquarters (lambsquarters; [16]): 60
Barnyardgrass plant response rating (barnyardgrass [1]; [3]): 65
Plant response rating, Barnyardgrass (barnyardgrass [1]; [4]): 90
Barnyardgrass plant response rating (barnyardgrass [1]; [18]): 95
Barnyardgrass plant response rating (barnyardgrass [1]; [19]): 65
Plant response rating, Johnsongrass (johnsongrass; [24]): 0
Plant response rating, Johnsongrass (johnsongrass; [25]): 0
Plant response rating, Johnsongrass (johnsongrass; [26]): 60
Plant response rating, Johnsongrass (johnsongrass; [29]): 95
Johnsongrass plant response rating (johnsongrass; [12]): 0
Plant response rating, Johnsongrass (johnsongrass; [13]): 0
Plant response rating, Johnsongrass (johnsongrass; [15]): 0
Plant response rating, Johnsongrass (johnsongrass; [16]): 0
Plant response rating (0 to 100 scale), Barnyardgrass (barnyardgrass [2]; [30]): 40
Barnyardgrass plant response rating (barnyardgrass [2]; [31]): 40
Plant response rating, Barnyardgrass (barnyardgrass [2]; [27]): 90
Barnyardgrass plant response rating (barnyardgrass [2]; [28]): 70
Plant response rating, Cupgrass, Woolly (woolly cupgrass; [24]): 0
Plant response rating, Cupgrass, Woolly (woolly cupgrass; [25]): 0
Plant response rating, Cupgrass, Woolly (woolly cupgrass; [26]): 0
Plant response rating, Cupgrass, Woolly (woolly cupgrass; [29]): 10
Cupgrass, Woolly plant response rating (woolly cupgrass; [12]): 20
Plant response rating, Cupgrass, Woolly (woolly cupgrass; [13]): 10
Plant response rating, Cupgrass, Woolly (woolly cupgrass; [15]): 0
Plant response rating, Cupgrass, Woolly (woolly cupgrass; [16]): 0

Source: US20060069132A1, “Azolecarboxamide herbicides” (priority 2004, published 2006)
